The target in one test is T1, PD-L1 (Mus musculus, UniProt Q9EP73).
T1 construct: Fc (Fc chimera); purchased R&D Systems 1019-B7-100
Description: Rescue of mouse splenocyte proliferation in the presence of recombinant PD-L1 (CFSE proliferation assay). The class given is cell-based. The settings on record: 100 nM compound; anti-CD3/CD28 stimulated mouse splenocytes + PD-L1; 72 h; read-out: PDL1 (rescue of proliferation @ 100 nM). As to the method: Example 1: Rescue of Mouse Splenocyte Proliferation in the Presence of Recombinant PD-L1/PD-L2
Recombinant mouse PD-L1 (rm-PDL-1, cat no: 1019-B7-100; R&D Systems) were used as the source of PD-L1.
Mouse splenocytes harvested from 6-8 weeks old C57 BL6 mice; RPMI 1640 (GIBCO, Cat #11875); DMEM with high glucose (GIBCO, Cat #D6429); Fetal Bovine Serum [Hyclone, Cat #SH30071.03]; Penicillin (10000 unit/mL)-Streptomycin (10,000 μg/mL) Liquid (GIBCO, Cat #15140-122); MEM Sodium Pyruvate solution 100 mM (100×)), Liquid (GIBCO, Cat #11360); Nonessential amino acid (GIBCO, Cat #11140); L-Glutamine (GIBCO, Cat #25030); Anti-CD3 antibody (eBiosciences—16-0032); Anti-CD28 antibody (eBiosciences—16-0281); ACK lysis buffer (1 mL) (GIBCO, Cat #-A10492); Histopaque (density—1.083 gm/mL) (SIGMA 10831); Trypan blue solution (SIGMA-T8154); 2 mL Norm Ject Luer Lock syringe-(Sigma 2014-12); 40 μm nylon cell strainer (BD FALCON 35230); Hemacytometer (Bright line-SIGMA Z359629); FACS Buffer (PBS/0.1% BSA): Phosphate Buffered Saline (PBS) pH 7.2 (HiMedia TS1006) with 0.1% Bovine Serum Albumin (BSA) (SIGMA A7050) and sodium azide (SIGMA 08591); 5 mM stock solution of CFSE: CFSE stock solution was prepared by diluting lyophilized CFSE with 180 μL of Dimethyl sulfoxide (DMSO C2H6SO, SIGMA-D-5879) and aliquoted in to tubes for further use. Working concentrations were titrated from 10 μM to 1 μM. (eBioscience-650850-85); 0.05% Trypsin and 0.02% EDTA (SIGMA 59417C); 96-well format ELISA plates (Corning CLS3390); BD FACS caliber (E6016); Recombinant mouse B7-H1/PDL1 Fc Chimera, (rm-PD-L1 cat no: 1019-B7-100).
Splenocytes harvested in a 50 mL falcon tube by mashing mouse spleen in a 40 μm cell strainer were further treated with 1 mL ACK lysis buffer for 5 min at room temperature. After washing with 9 mL of RPMI complete media, cells were re-suspended in 3 mL of 1×PBS in a 15 mL tube. 3 mL of Histopaque was added carefully to the bottom of the tube without disturbing overlaying splenocyte suspension. After centrifuging at 800×g for 20 min at room temperature, the opaque layer of splenocytes was collected carefully without disturbing/mixing the layers. Splenocytes were washed twice with cold 1×PBS followed by total cell counting using Trypan Blue exclusion method and used further for cell based assays.
Splenocytes were cultured in RPMI complete media (RPMI+10% fetal bovine serum+1 mM sodium pyruvate+10,000 units/mL penicillin and 10,000 μg/mL streptomycin) and maintained in a CO2 incubator with 5% CO2 at 37° C.
CFSE Proliferation Assay: CFSE is a dye that passively diffuses into cells and hinds to intracellular proteins. 1×10^6 cells/mL of harvested splenocytes were treated with 5 μM of CFSE in pre-warmed 1×PBS/0.1% BSA solution for 10 min at 37° C. Excess CFSE was quenched using 5 volumes of ice-cold culture media to the cells and incubated on ice for 5 min. CFSE labeled splenocytes were further given three washes with ice cold complete RPMI media. CFSE labeled 1×10^5 splenocytes added to wells containing either MDA-MB231 cells (1×10^5 cells cultured in high glucose DMEM medium) or recombinant human PDL-1 (100 ng/mL) and test compounds. Splenocytes were stimulated with anti-mouse CD3 and anti-mouse CD28 antibody (1 μg/mL each), and the culture was further incubated for 72 h at 37° C. with 5% CO2. Cells were harvested and washed thrice with ice cold FACS buffer and % proliferation was analysed by flow cytometry with 488 nm excitation and 521 nm emission filters. Data Compilation, Processing and Inference: […]

The next test has as its system recombinant human TIM-3. Description: Human PBMC IFN-γ release assay in the presence of recombinant TIM-3. It counts as cell-based. The settings on record: 100 nM compound, plate-coated TIM-3 + anti-CD3, anti-CD28, 72 h. How it is done:
Vehicle: Milli Q water; RPMI 1640 (GIBCO, Cat #11875); Fetal Bovine Serum [Hyclone, Cat #SH30071.03]; Penicillin (10000 unit/ml)-Streptomycin (10,000 μg/ml) liquid (GIBCO, Cat #15140-122); MEM Sodium Pyruvate solution 100 mM (100×). Liquid (GIBCO, Cat #11360); Nonessential amino acid (GIBCO, Cat #11140); L-Glutamine (GIBCO, Cat #25030); Recombinant human TIM-3 (rhGi24 TIM-3/B7-H5 Fc chimera (R&D systems, cat no: 7126-B7); Anti-h/m Gi24/TIM-3/B7-H5 purified mouse monoclonal IgG2B (R&D systems, cat no: MAB7126); Mouse IgG2B isotype control (R&D Systems cat no: MAB 004); Anti human-CD3 antibody (eBiosciences—16-0039); Anti human-CD28 antibody (eBiosciences—16-0289); Histopaque (density-1.077 gm/ml) (SIGMA 1077); Trypan Blue solution (SIGMA-T8154); Hemacytometer (Bright line-SIGMA Z359629); FACS Buffer containing Phosphate Buffered Saline (PBS) pH 7.2; (HiMedia TS1006) with 0.1% Bovine Serum Albumin (BSA) (SIGMA A7050) and sodium azide (SIGMA 08591); 96-well format ELISA plates (Corning 3599); 96-well format ELISA plates (Corning 3361); BD FACS caliber (E6016); Centrifuge (Eppendorf 5810 R); Human IFN-'γ Duo set ELISA kit (R&D Systems; cat no: DY-285).
Human PBMC IFN-γ Release Assay
96-well cell culture plates were pre-coated with recombinant human TIM-3 (2.5 μg/ml) and anti-human CD3 (2.5 μg/ml), and stored at 4° C. overnight. Anti-human TIM-3 and isotype control antibodies were either coated along with the TIM-3 or incubated for 30 min next day before addition of cells. On the next day, plates were washed with 1× PBS and then incubated with test compounds for 30 min. Isolated PBMC (0.1×10^6 cells/well) and anti-human CD28 antibodies (1 μg/ml) were added to the wells. The culture was further incubated for 72 h at 37° C. with 5% CO2. After 72 h of incubation the cell culture supernatants were collected after brief centrifugation at 200 g×5 min at 4° C. and processed for human IFN-γ measurement by ELISA following manufacturer's protocol (R&D Systems; DY-285).
In brief, 96-well ELISA plates were coated with 100 μl/well of capture antibody in coating buffer and incubated overnight at 4° C. Plates were washed five times with wash buffer and further blocked with 200 μl of 1× assay diluents for 1 hr at RT. Following wash step, 100 μl of cell culture supernatants were added to wells and further incubated for 2 hr at RT. Appropriate standards were also included. After wash step, plate was incubated for one hour with 100 μl/well of detection antibody. The wash step was repeated and the plate was incubated for 30 min with 100 μl/well of Avidin-HRP. The plate was washed four times with wash buffer and subsequently incubated for 15 min with 100 μl/well of substrate solution. 50 μl of stop solution was added to each well and the plate was read at 450 nm using Gen5 ver 2.05. Delta OD values were used for calculating the concentrations. The absorbance values were plotted against the standards and the concentration of IFN-γ was determined using GraphPad Prism software. Each experimental condition was carried out in triplicates.
The percent rescue of IFN-γ release of the selected compounds of present invention are set forth below wherein “A” refers to compounds having more than 70% rescue of IFN-γ release, “B” refers to compounds having rescue of IFN-γ release ranges from 50% to 69.9% and “C” refers to compounds having less than 50% rescue of IFN-γ release.

T1 sequence (Q9EP73 19-238 limits assumed): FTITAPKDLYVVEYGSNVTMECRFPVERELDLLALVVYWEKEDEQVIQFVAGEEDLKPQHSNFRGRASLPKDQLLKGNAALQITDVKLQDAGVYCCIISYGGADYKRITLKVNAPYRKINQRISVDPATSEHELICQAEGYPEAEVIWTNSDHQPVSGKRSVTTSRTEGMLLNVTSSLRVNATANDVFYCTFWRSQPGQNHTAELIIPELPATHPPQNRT

For `CC(=O)NCCCC[C@H](NC(=O)N[C@H](C(=O)O)C(C)O)c1nc([C@@H](N)CO)no1` (some centres unmarked) [Compound 20], the activity at 0.1 µM at PD-L1 came to 37%. Besides, in the test on recombinant human TIM-3, the “TIM-3 (rescue of IFN γ release @ 100 nM)” value was “C (less than 50% rescue of IFN-γ release)”.
Take `CC(O)[C@H](NC(=O)N[C@@H](CC(N)=O)c1nc([C@@H](N)Cc2ccc(O)cc2)no1)C(=O)O` (some centres unmarked) [Compound 21]: the activity at 0.1 µM at PD-L1 is 50%. In the test with recombinant human TIM-3, the “TIM-3 (rescue of IFN γ release @ 100 nM)” value is “C (less than 50% rescue of IFN-γ release)”.
Consider `CC(O)[C@@H](NC(=O)N[C@@H](CC(N)=O)c1nc([C@@H](N)CO)no1)C(=O)O` (some centres unmarked) [Compound 22], for which the activity at 0.1 µM at PD-L1 is 90%. Also, the “TIM-3 (rescue of IFN γ release @ 100 nM)” value in the test with recombinant human TIM-3 is “C (less than 50% rescue of IFN-γ release)”.
For the compound `CC(O)[C@H](NC(=O)N[C@@H](CC(N)=O)c1nc(C2(N)CCCC2)no1)C(=O)O` (some centres unmarked) [Compound 23], at PD-L1, the activity at 0.1 µM came to 47%. Further, the “TIM-3 (rescue of IFN γ release @ 100 nM)” value in the test on recombinant human TIM-3 was “C (less than 50% rescue of IFN-γ release)”.
In the case of `CC(O)[C@H](NC(=O)N[C@@H](CC(N)=O)c1nc([C@@H](O)CO)no1)C(=O)O` (some centres unmarked) [Compound 24], the activity at 0.1 µM at PD-L1 was 65%. In the test on recombinant human TIM-3, the “TIM-3 (rescue of IFN γ release @ 100 nM)” value was “A (more than 70% rescue of IFN-γ release)”.
Consider `N=C(N)NCCC[C@H](N)c1noc([C@H](CC(N)=O)NC(=O)N[C@@H](CO)C(=O)O)n1` [Compound 25], for which, on PD-L1, the activity at 0.1 µM was 70%. Besides, the “TIM-3 (rescue of IFN γ release @ 100 nM)” value in the test with recombinant human TIM-3 is “A (more than 70% rescue of IFN-γ release)”.
Consider `CN[C@@H](CO)c1noc([C@@H](N)CC(N)=O)n1` [Compound 26], for which the activity at 0.1 µM at PD-L1 worked out at 53%. Further, in the test with recombinant human TIM-3, the “TIM-3 (rescue of IFN γ release @ 100 nM)” value was “B (rescue of IFN-γ release ranges from 50% to 69.9%)”.
